Results published in US20090221600A1, “PYRIDO-PYRIDIMIDINE DERIVATIVES USEFUL AS ANTIINFLAMMATORY AGENTS” (priority 2005, published 2009).

- melting point: 201.8 to 203.2 °C
Compound: Cc1ccccc1-c1cc2cnc(NC3CCN(Cc4ccccc4)CC3)nc2n(C2CCOCC2)c1=O [Compound No. 9, 2-[(1-Benzyl-piperidin-4-yl)amino]-6-(2-methyl-phenyl)-8-(tetrahydro-2H-pyran-4-yl)pyrido[2,3-d]pyrimidin-7(8H)-one]
